Results on 1 molecule are retold here after paper PMC8996404, “The pharmacokinetics of buserelin after intramuscular administration in pigs and cows” (BMC Veterinary Research, 2022).

As usually defined, the AUC(0-t) is the area under the concentration-time curve up to a stated or last time point. Lower therefore signals less exposure. As usually defined, the Cmax is the highest concentration seen after dosing. Broadly, the AUC(0-inf) is the area under the concentration-time curve extrapolated to infinity. Read a low AUC(0-inf) as less exposure. Usually CL/F stands for clearance divided by bioavailability, as obtained after extravascular dosing. As usually defined, the Vd/F is the volume of distribution divided by bioavailability. What is called clearance is the volume of plasma or blood freed of the substance per unit of time. In general, Vd refers to a proportionality between amount in the body and measured concentration, not a real space.

Like-named read-outs stand apart in the source and are kept apart here.

Data set [1] can be described thus: Plasma pharmacokinetics of buserelin after i.m. administration in cows. In kind it is in vivo. The settings on record: for MRT: cow, 3 mg per cow. As for the experimental part:
The UPLC-MS/MS system (Waters Acquity UPLC and Waters Quattro Premier, Waters Co., USA) and the chromatographic column (Agilent Poroshell 120 EC-C18, 4.6 × 100 mm, 2.7 µm) were used in this study. The separation was performed with 0.1% formic acid in water (mobile phase solvent A) and 0.1% formic acid in acetonitrile (solvent B) with a flow rate of 0.6 mL/min. The gradient elution program was optimized as follow: 75% A (0–0.5 min), 10% A (5–7 min) 75% A (7.1–10 min). The sample was injected at a volume of 5 µL at 30℃. The mass spectrometer was operated in the positive ion detection mode with the capillary voltage set at 5.5 kV and the source temperature was 550 ℃. Others parameters were as follows: nebulizer gas pressure was 55 psi, ion source gas pressure was 60 psi, curtain gas pressure was 30 psi, declustering potential was 68 V, entrance potential was 10 V, and collision cell exit potential was 13 V.
Five healthy adult female Danish Landrance × Yorkshire × Duroc pigs (100–120 days, 50–60 kg, Ningbo Kuangdai Husbandry Co., Ltd. Ningbo China) and five healthy adult female Holstein cows (1.5–2 years, 440–500 kg, Ningbo Milk Group Co., Ltd. Ningbo China) were randomly selected to use in this research. All animals were examined by a local veterinarian with regard to physical, hematologic, and biochemical conditions during the two-week adaptation period. The two protocols used in this study were reviewed and approved by the Institutional Animal Care and Use Committee of China Agricultural University (pigs: 11605–20-D-007; cows: 11605–20-B-003). Buserelin injection solution (0.5 mg/mL, 10 mL) was acquired from Ningbo Sansheng Pharmaceutical Company. In order to avoid introducing bias results from feeding, each animal in the study fasted for approximately 12 h. Each pig received 1 mg buserelin injection solution (about 0.018 mg/kg), and each cow received 3 mg (about 0.0064 mg/kg). During the entire experiment, water was available ad libitum. Adverse symptoms were recorded and evaluated. Blood samples of 5 mL were collected into heparinized tube (pigs: anterior vena cava; cows: vena jugularis interna) at 0, 0.083, 0.167, 0.333, 0.5, 0.75, 1, 1.5, 2, 3, 4, 5, 6, 7, and 8 h after i.m. administration. The blood samples were centrifuged for 5 min at 2775 × g. Plasma samples were stored in -20 ℃ until analysis (within 21 days of collection).
Frozen plasma samples were thawed and vortexed, and 500 µL plasma and 1 mL 0.1% formic acid in acetonitrile were mixed together. After 10 min ultrasonic treatment, the samples were centrifuged for 10 min at 11,100 × g. The upper layer was collected and the remainder was treated twice. These two supernatants were added together, the samples were evaporated via nitrogen gas at 40 ℃, and redissolved in 2.5 mL 0.1% formic acid in acetonitrile-0.1% formic acid in water (1:3 v/v). After filtered through a 0.22 µm microbore cellulose membrane, the samples were collected and bottled to UPLC-MS/MS system for analysis.
Plasma concentrations of buserelin were analyzed using the established method, and the pharmacokinetic parameters were calculated via a non-compartmental analysis model 200 in WinNonlin software (WinNolin 8.1.0 Certara, Pharsight, Mountain View, CA, USA) and expressed in mean ± standard deviation (SD), and no statistical tests were applied.

The conditions of data set [2]: cited from earlier work. As for the experimental part: After being approved by the European Medicines Agency (EMA) in 1995 [1], there are some pharmacokinetic studies of buserelin been reported in humans and rats following subcutaneous (s.c.), intranasal (i.n.), or intravenous (i.v.) routes. […] Regardless of the administration route of buserelin, the elimination of half- ... || The Vd was 80.49 ± 43.88 L for pigs and 839.88 ± 174.77 L for cows, which is larger than pigs (304 ± 112 mL/kg) at a single dose 1 mg i.v., and dogs (50.1 ± 2.4 mL/kg) at a single dose 5 mg i.v.. High plasma concentration, high bonding rate, means more drugs cannot across the membrane and barrier. Therefore, binding changes can affect the distribution of drugs. Because protein binding of buserelin is about 15% [2], it is proportional to the body volume and body weight and animals using in this study had larger volume of body water or extracellular water. It has been repo ...

For data set [3] the following is noted: dogs, cited from earlier work. The source says:
High plasma concentration, high bonding rate, means more drugs cannot across the membrane and barrier. Therefore, binding changes can affect the distribution of drugs. Because protein binding of buserelin is about 15% [2], it is proportional to the body volume and body weight and animals using in this study had larger volume of body water or extracellular water. It has been repo ...

The conditions of data set [4]: pigs, cited from earlier work. Here is the method:
(§1) The Vd was 80.49 ± 43.88 L for pigs and 839.88 ± 174.77 L for cows, which is larger than pigs (304 ± 112 mL/kg) at a single dose 1 mg i.v., and dogs (50.1 ± 2.4 mL/kg) at a single dose 5 mg i.v.. High plasma concentration, high bonding rate, means more drugs cannot across the membrane and barrier. Therefore, binding changes can affect the distribution of drugs. Because protein binding of buserelin is about 15% [2], it is proportional to the body volume and body weight and animals using in this study had larger volume of body water or extracellular water. It has been repo ...

Data set [5] relates to pyroglutamyl-amino-peptidase. The settings on record: enzyme can be isolated from mammalian liver ref 2; cited from earlier work. As for the experimental part:
as §1

The mark [6] stands for this setting: female, Holstein, im, single i.m. dose 3 mg per cow, plasma, mean ± SD, n = 5.
[7] abbreviates: single i.m. dose 3 mg per cow, plasma, mean ± SD, n = 5.

As to `CCNC(=O)[C@@H]1CCCN1C(=O)[C@H](CCCNC(=N)N)NC(=O)[C@H](CC(C)C)NC(=O)[C@@H](COC(C)(C)C)NC(=O)[C@H](Cc1ccc(O)cc1)NC(=O)[C@H](CO)NC(=O)[C@H](Cc1c[nH]c2ccccc12)NC(=O)[C@H](Cc1cnc[nH]1)NC(=O)[C@@H]1CCC(=O)N1` [buserelin, Buserelin], the MRT in data set [1] (female, Holstein, plasma, im, single i.m. dose 3 mg per cow, plasma, mean ± SD, n = 5, read-out: MRT0-t) came out at 1.85 ± 0.56 h; in data set [1] (female, Holstein, plasma, im, single i.m. dose 3 mg per cow, plasma, mean ± SD, n = 5, read-out: MRT0-∞) it was 2.16 ± 0.7 h. Besides, the tmax is 1.05 ± 0.27 h in data set [1] (female, Holstein, im, single i.m. dose 3 mg per cow (about 0.0064 mg/kg), plasma, UPLC-MS/MS, non-compartmental, mean ± SD, n = 5) and 4 h in data set [3] (s.c. at a dose of 3.3 mg ref 18). In data set [1] (female, Holstein, im, single i.m. dose 3 mg per cow, plasma, 0 to last measurement point, mean ± SD, n = 5), the AUC(0-t) turned out to be 5.63 ± 1.86 ng·h/mL. Besides, in data set [1] (female, Holstein, im, single i.m. dose 3 mg per cow, plasma, UPLC-MS/MS, non-compartmental, mean ± SD, n = 5), the peak level (Cmax) was 2.68 ± 0.36 ng/mL. In data set [1] (setting [6]), this molecule had an AUC(0-inf) of 5.99 ± 2.01 ng·h/mL. In addition, in data set [1] (setting [6]), the CL/F was 9080 mL/min. For the same molecule, in data set [1] (setting [6]), the Vd/F is 840 ± 175 L. In data set [1] (female, Holstein, im, single i.m. dose 3 mg per cow, plasma, non-compartmental, mean ± SD, n = 5, read-out: t1/2 (elimination half-time) (converted)), the half-life is 1.13 ± 0.3 h. The same molecule displayed a Cmax/D in data set [1] (single i.m. dose 3 mg per cow (about 0.0064 mg/kg), rate of Cmax to dosage, mean ± SD, n = 5) of 420.35 ± 58.40 ng/mL/mg/kg. In data set [1] (single i.m. dose 3 mg per cow, n = 5), the Adverse effects entry is reported as “No adverse effects were observed”. The same molecule showed an AUMClast in data set [1] (setting [7]) of 11.23 ± 6.89 h × h × ng/mL. Further, in data set [1] (setting [7]), the “ka (absorption rate constant)” value amounted to 0.58 ± 0.17 h⁻¹. Further, the Protein binding result in data set [2] was “about 15%”. Besides, in data set [2] (guinea pigs, i.v. ref 1), the “rapid initial half time / t1/2” value is 0.2 h. Moreover, the clearance in data set [3] (5 mg per dog i.v. injection ref 18) is 1.7 ± 0.10 mL/min/kg; in data set [4] (1 mg per pig i.v. injection, no reference given), 2.0 ± 0.4 mL/min/kg. For the same molecule, the figures for the Vd in data set [3] (single dose 5 mg i.v. ref 18) and in data set [4] (single dose 1 mg i.v. ref 14) were 0.0501 ± 0.0024 L/kg and 0.304 ± 0.112 L/kg, respectively. The results for the t1/2 in data set [3] (single dose of 5 mg i.v. injection ref 18) and in data set [4] (single dose of 1 mg i.v. injection ref 14) were 0.94 ± 0.0163 h and 1.72 ± 0.333 h, respectively. In data set [5], the Degradation by pyroglutamyl-amino-peptidase result was “rapidly degraded”.
